Source: BindingDB's records for PubMed 39140043 (Usona Institute)

Molecular target: GTPase KRas (Homo sapiens, UniProt P01116)
Assay: Inhibition of GDP bound KRAS G12V mutant (unknown origin)

Chain of GTPase KRas (P01116 whole entry G12V): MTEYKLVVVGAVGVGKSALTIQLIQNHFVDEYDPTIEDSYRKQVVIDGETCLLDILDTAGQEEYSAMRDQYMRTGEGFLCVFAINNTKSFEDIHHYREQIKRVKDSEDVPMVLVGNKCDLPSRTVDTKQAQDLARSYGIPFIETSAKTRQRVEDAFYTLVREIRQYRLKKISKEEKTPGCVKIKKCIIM

IC50: 0.371 nM
SMILES: C#Cc1c(F)ccc2cc(O)cc(-c3ncc4c(N(C)[C@H]5C[C@@H]5F)nc(OCC56CCCN5CC(=C)C6)nc4c3F)c12 (stereo partly specified)
